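The compound was tested at five concentrations on cells cultured in 96-well plates, with a 48-hour exposure period. GI50 is the concentration that inhibits growth by half.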 Activity calls are given as the source filed them. Cut-off read from the data, not from the text of the source: active = GI50 up to about 1.1 µM and inactive = higher.
Experiments:
Assay in all cases: NCI tumour cell line growth inhibition, 48 h
HOP-92 = test system: HOP-92
DU-145 = test system: DU-145
SR = test system: SR
NCI-H226 = test system: NCI-H226
HL-60 = test system: HL-60
786-0 = test system: 786-0
CCRF-CEM = test system: CCRF-CEM
A498 = test system: A498
K562 = test system: K562
HOP-62 = test system: HOP-62
OVCAR-3 = test system: OVCAR-3
MDA-MB-231 = test system: MDA-MB-231
KM12 = test system: KM12
M14 = test system: M14
PC-3 = test system: PC-3
SK-OV-3 = test system: SK-OV-3
TK-10 = test system: TK-10
UACC-62 = test system: UACC-62
SF-539 = test system: SF-539
SF-295 = test system: SF-295
BT-549 = test system: BT-549
COLO 205 = test system: COLO 205
OVCAR-8 = test system: OVCAR-8
CAKI-1 = test system: CAKI-1
SNB-75 = test system: SNB-75
U-251 = test system: U-251
SW-620 = test system: SW-620
MDA-N = test system: MDA-N
SK-MEL-28 = test system: SK-MEL-28
MDA-MB-435 = test system: MDA-MB-435
RPMI-8226 = test system: RPMI-8226
SNB-19 = test system: SNB-19
LOX IMVI = test system: LOX IMVI
IGROV-1 = test system: IGROV-1
NCI-H460 = test system: NCI-H460
MCF7 = test system: MCF7
UO-31 = test system: UO-31
ACHN = test system: ACHN
SN12C = test system: SN12C
A549 = test system: A549
NCI-H23 = test system: NCI-H23
SK-MEL-2 = test system: SK-MEL-2
HCT-116 = test system: HCT-116
EKVX = test system: EKVX
OVCAR-4 = test system: OVCAR-4
Malme-3M = test system: Malme-3M
SK-MEL-5 = test system: SK-MEL-5
HCT-15 = test system: HCT-15
UACC-257 = test system: UACC-257
SF-268 = test system: SF-268
RXF 393 = test system: RXF 393
NCI-H522 = test system: NCI-H522
NCI/ADR-RES = test system: NCI/ADR-RES
HCC 2998 = test system: HCC 2998
T47D = test system: T47D
HT-29 = test system: HT-29
MOLT-4 = test system: MOLT-4
Hs-578T = test system: Hs-578T

## COc1cc(C2c3cc4c(cc3OC(NNC(N)=S)C2C)OCO4)cc(OC)c1OC (stereo not drawn)
HOP-92
  GI50: 152 nM (active)
DU-145
  GI50: 4.17 µM (inactive)
SR
  GI50: 81.1 nM (active)
NCI-H226
  GI50: 721 nM (active)
HL-60
  GI50: 165 nM (active)
786-0
  GI50: 398 nM (active)
CCRF-CEM
  GI50: 244 nM (active)
A498
  GI50: 191 nM (active)
K562
  GI50: 242 nM (active)
HOP-62
  GI50: 344 nM (active)
OVCAR-3
  GI50: 349 nM (active)
MDA-MB-231
  GI50: 400 nM (active)
KM12
  GI50: 343 nM (active)
M14
  GI50: 351 nM (active)
PC-3
  GI50: 302 nM (active)
SK-OV-3
  GI50: 530 nM (active)
TK-10
  GI50: 5.12 µM (inactive)
UACC-62
  GI50: 318 nM (active)
SF-539
  GI50: 199 nM (active)
SF-295
  GI50: 231 nM (active)
BT-549
  GI50: 804 nM (active)
COLO 205
  GI50: 277 nM (active)
OVCAR-8
  GI50: 411 nM (active)
CAKI-1
  GI50: 540 nM (active)
SNB-75
  GI50: 71.3 µM (inactive)
U-251
  GI50: 362 nM (active)
SW-620
  GI50: 363 nM (active)
MDA-N
  GI50: 84 nM (active)
SK-MEL-28
  GI50: 524 nM (active)
MDA-MB-435
  GI50: 42.5 nM (active)
RPMI-8226
  GI50: 290 nM (active)
SNB-19
  GI50: 471 nM (active)
LOX IMVI
  GI50: 412 nM (active)
IGROV-1
  GI50: 441 nM (active)
NCI-H460
  GI50: 376 nM (active)
MCF7
  GI50: 457 nM (active)
UO-31
  GI50: 931 nM (active)
ACHN
  GI50: 989 nM (active)
SN12C
  GI50: 1.03 µM (active)
A549
  GI50: 644 nM (active)
NCI-H23
  GI50: 380 nM (active)
SK-MEL-2
  GI50: 25.6 µM (inactive)
HCT-116
  GI50: 244 nM (active)
EKVX
  GI50: 22.5 µM (inactive)
OVCAR-4
  GI50: 41.3 µM (inactive)
Malme-3M
  GI50: 530 nM (active)
SK-MEL-5
  GI50: 269 nM (active)
HCT-15
  GI50: 451 nM
UACC-257
  GI50: 1.93 µM (inactive)
SF-268
  GI50: 3.33 µM (inactive)
RXF 393
  GI50: 279 nM (active)
NCI-H522
  GI50: 303 nM (active)
NCI/ADR-RES
  GI50: 585 nM (active)
HCC 2998
  GI50: 906 nM (active)
T47D
  GI50: 26.1 µM (inactive)
HT-29
  GI50: 269 nM (active)
MOLT-4
  GI50: 374 nM (active)
Hs-578T
  GI50: 406 nM (active)

Source: ChEMBL document CHEMBL1201862, “PubChem BioAssay data set” (2004)
